PubChem BioAssay (NCI)
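Here, GI50 denotes the concentration required for 50% inhibition of growth. TGI: concentration producing complete growth inhibition.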

Tests used:
Assay in all cases: NCI-60 cell line screen, 384-well format
PC-3 prostate = system: PC-3 prostate
SF-268 CNS = system: SF-268 CNS
A549 NSCLC = system: A549 NSCLC
MALME-3M melanoma = system: MALME-3M melanoma
HOP-92 NSCLC = system: HOP-92 NSCLC
SW-620 colon = system: SW-620 colon
LOX IMVI melanoma = system: LOX IMVI melanoma
ACHN renal = system: ACHN renal
TK-10 renal = system: TK-10 renal
HL-60(TB) leukemia = system: HL-60(TB) leukemia
SF-539 CNS = system: SF-539 CNS
NCI-H226 lung = system: NCI-H226 lung
M14 melanoma = system: M14 melanoma
786-0 renal = system: 786-0 renal
NCI-H460 NSCLC = system: NCI-H460 NSCLC
MDA-MB-435 melanoma = system: MDA-MB-435 melanoma
SNB-19 CNS = system: SNB-19 CNS
SF-295 CNS = system: SF-295 CNS
HCT-116 colon = system: HCT-116 colon
HT29 colon = system: HT29 colon
BT-549 breast = system: BT-549 breast
SN12C renal = system: SN12C renal
SK-OV-3 ovarian = system: SK-OV-3 ovarian
T-47D breast = system: T-47D breast
U251 glioblastoma = system: U251 glioblastoma
HOP-62 NSCLC = system: HOP-62 NSCLC
SK-MEL-28 melanoma = system: SK-MEL-28 melanoma
CCRF-CEM leukemia = system: CCRF-CEM leukemia
SR leukemia = system: SR leukemia
MDA-MB-468 breast = system: MDA-MB-468 breast
K-562 leukemia = system: K-562 leukemia
RPMI-8226 leukemia = system: RPMI-8226 leukemia
OVCAR-8 ovarian = system: OVCAR-8 ovarian
NCI/ADR-RES ovarian = system: NCI/ADR-RES ovarian
NCI-H322M lung = system: NCI-H322M lung
OVCAR-3 ovarian = system: OVCAR-3 ovarian
MCF7 breast = system: MCF7 breast
OVCAR-5 ovarian = system: OVCAR-5 ovarian
UACC-257 melanoma = system: UACC-257 melanoma
HCC-2998 colon = system: HCC-2998 colon
SK-MEL-2 melanoma = system: SK-MEL-2 melanoma
IGROV1 ovarian = system: IGROV1 ovarian
UACC-62 melanoma = system: UACC-62 melanoma
MDA-MB-231 breast = system: MDA-MB-231 breast
MOLT-4 leukemia = system: MOLT-4 leukemia
NCI-H522 lung = system: NCI-H522 lung
COLO 205 colon = system: COLO 205 colon
DU-145 prostate = system: DU-145 prostate
HCT-15 colon = system: HCT-15 colon
KM12 colon = system: KM12 colon
SK-MEL-5 melanoma = system: SK-MEL-5 melanoma
RXF 393 renal = system: RXF 393 renal
NCI-H23 lung = system: NCI-H23 lung
A498 renal = system: A498 renal
OVCAR-4 ovarian = system: OVCAR-4 ovarian
CAKI-1 renal = system: CAKI-1 renal

## Cc1c(CN2CCC(Nc3ncnc4sc(CC(F)(F)F)cc34)CC2)ccc2c1cc(C#N)n2Cc1cn[nH]c1
PC-3 prostate
  GI50: 1.3 µM
  TGI: 2.58 µM
SF-268 CNS
  GI50: 1.31 µM
  TGI: 2.59 µM
A549 NSCLC
  GI50: 1.35 µM
  TGI: 2.67 µM
MALME-3M melanoma
  GI50: 1.36 µM
  TGI: 2.65 µM
HOP-92 NSCLC
  GI50: 1.33 µM
  TGI: 2.61 µM
SW-620 colon
  GI50: 1.31 µM
  TGI: 2.6 µM
LOX IMVI melanoma
  GI50: 2.06 µM
  TGI: 3.49 µM
ACHN renal
  GI50: 1.39 µM
  TGI: 2.69 µM
TK-10 renal
  GI50: 1.33 µM
  TGI: 2.62 µM
HL-60(TB) leukemia
  GI50: 0.627 µM
  TGI: 1.68 µM
SF-539 CNS
  GI50: 1.33 µM
  TGI: 2.62 µM
NCI-H226 lung
  GI50: 1.3 µM
  TGI: 2.61 µM
M14 melanoma
  GI50: 1.62 µM
  TGI: 2.98 µM
786-0 renal
  GI50: 1.16 µM
  TGI: 2.39 µM
NCI-H460 NSCLC
  GI50: 0.409 µM
  TGI: 1.63 µM
MDA-MB-435 melanoma
  GI50: 1.86 µM
  TGI: 3.27 µM
SNB-19 CNS
  GI50: 1.67 µM
  TGI: 3.04 µM
SF-295 CNS
  GI50: 1.42 µM
  TGI: 2.73 µM
HCT-116 colon
  GI50: 0.417 µM
  TGI: 1.61 µM
HT29 colon
  GI50: 0.318 µM
  TGI: 1.27 µM
BT-549 breast
  GI50: 0.901 µM
  TGI: 2.12 µM
SN12C renal
  GI50: 1.3 µM
  TGI: 2.58 µM
SK-OV-3 ovarian
  GI50: 1.33 µM
  TGI: 2.61 µM
T-47D breast
  GI50: 0.247 µM
  TGI: 1.44 µM
U251 glioblastoma
  GI50: 0.73 µM
  TGI: 2 µM
HOP-62 NSCLC
  GI50: 1.16 µM
  TGI: 2.39 µM
SK-MEL-28 melanoma
  GI50: 1.85 µM
  TGI: 3.26 µM
CCRF-CEM leukemia
  GI50: 0.668 µM
  TGI: 1.96 µM
SR leukemia
  GI50: 0.137 µM
  TGI: 0.279 µM
MDA-MB-468 breast
  GI50: 0.327 µM
  TGI: 1.13 µM
K-562 leukemia
  GI50: 0.295 µM
  TGI: 1.11 µM
RPMI-8226 leukemia
  GI50: 0.107 µM
  TGI: 0.77 µM
OVCAR-8 ovarian
  GI50: 1.5 µM
  TGI: 2.84 µM
NCI/ADR-RES ovarian
  GI50: 1.58 µM
  TGI: 2.94 µM
NCI-H322M lung
  GI50: 0.954 µM
  TGI: 2.15 µM
OVCAR-3 ovarian
  GI50: 1.23 µM
  TGI: 2.48 µM
MCF7 breast
  GI50: 1.02 µM
  TGI: 2.19 µM
OVCAR-5 ovarian
  GI50: 1.73 µM
  TGI: 3.12 µM
UACC-257 melanoma
  GI50: 0.772 µM
  TGI: 2.06 µM
HCC-2998 colon
  GI50: 0.391 µM
  TGI: 1.35 µM
SK-MEL-2 melanoma
  GI50: 1.33 µM
  TGI: 2.6 µM
IGROV1 ovarian
  GI50: 1.35 µM
  TGI: 3.4 µM
UACC-62 melanoma
  GI50: 1.65 µM
  TGI: 3.02 µM
MDA-MB-231 breast
  GI50: 1.36 µM
  TGI: 2.65 µM
MOLT-4 leukemia
  GI50: 0.486 µM
  TGI: 1.69 µM
NCI-H522 lung
  GI50: 1.39 µM
  TGI: 2.68 µM
COLO 205 colon
  GI50: 1.42 µM
  TGI: 2.74 µM
DU-145 prostate
  GI50: 1.7 µM
  TGI: 3.09 µM
HCT-15 colon
  GI50: 1.23 µM
  TGI: 2.49 µM
KM12 colon
  GI50: 1.28 µM
  TGI: 2.56 µM
SK-MEL-5 melanoma
  GI50: 0.402 µM
  TGI: 1.54 µM
RXF 393 renal
  GI50: 0.219 µM
  TGI: 0.709 µM
NCI-H23 lung
  GI50: 0.275 µM
  TGI: 1.42 µM
A498 renal
  GI50: 1.15 µM
  TGI: 2.37 µM
OVCAR-4 ovarian
  GI50: 0.93 µM
  TGI: 2.14 µM
CAKI-1 renal
  GI50: 1.42 µM
  TGI: 2.73 µM
